Source: patent US11884686B2, “Chelate compounds” (priority 2016, dated 2024)

Legend:
[1] = Dissociation kinetics via Zn2+ transmetallation (T1 relaxation time); type: physicochemical; details: for nature of the kinetic dissociation curve, Zn2+ exchange: time dependent T1, 25° C., pH 5.1-5.7
Procedure: Kinetic inertness was evaluated at slightly acidic pH due to the slow rate of dissociation of the paramagnetic complex at physiological pH and to the potential hydrolysis of the metal ions at the concentrations used for the experiments and at pH values close to physiological.
The dissociation kinetics of Mn(II) based chelates (concentration 1 mM) of the invention was assessed via Zn^2+ transmetallation recording the time-dependent variation of the longitudinal relaxation time (i.e., T1). The assessment was completed in a set of experiments including for the prior art Mn Chelate different concentrations of competing metal ion (5, 10, 20, 40 equivalents of Zn^2+); at 25° C. and different pH (pH: 5.1; 5.4; 5.7). The dissociation kinetics for Mn Chelate 4 (concentration 1 mM) was assessed in the presence of 5 eq of Zn^2+ at 25° C. and pH 5.1 and 5.7. For both assessments, the reaction mixture contained 0.15 M NaCl and 50 mM N-methyl piperazin buffer (i.e., NMP). The longitudinal relaxation time changes were monitored at 1 MHz for the prior art Mn Chelate and at 0.01 MHz for Mn Chelate 4. Indeed, the release of the free Mn^2+ ion induced by Zn^2+ leads to a decrease of the relaxation time for both Mn(II) based chelates evaluated in all experimental conditions. […]
For any of the transmetallation experiments carried out with the prior art Mn Chelate (e.g., at different pH; different Zn^2+ or Cu^2+ concentration) it was evident that the variation of the relaxation rate T1 (for the Zn^2+-exchange; FIG. 4) or the variation of the UV-Vis absorbance (for the Cu^2+-exchange; FIG. 5) caused by competing metal ion was a “single phase” process better described as a mono-exponential function. […] The rate of dissociation described by kobs was calculated via equation (1) where [MnL]tot is the total concentration of Mn(II) based chelates and t is the observation time.

[2] = Dissociation kinetics via Cu2+ transmetallation (UV-Vis absorbance); type: physicochemical; details: pH = 5.0, CCu2+ 0.004 M, 25° C., 0.2 mM chelate

SMILES | kinetic inertness from conversion, Zn2+ transmetallation ([1]; FIG. 11, versus prior art Mn Chelate) | nature of the kinetic dissociation curve, Zn2+ exchange [1] | kobs1 [2] [min⁻¹]
CN1CCN2Cc3cccc(n3)CN(CC1)C(CCC(=O)N(C)C[C@H](O)[C@@H](O)[C@H](O)[C@H](O)CO)C(=O)[O][Mn][O]C(=O)C2CCC(=O)N(C)C[C@H](O)[C@@H](O)[C@H](O)[C@H](O)CO (stereo partly shown) [Mn Chelate 4] | superior kinetic inertness | biphasic behaviour | –
CN1CCN2CC(=O)[O][Mn][O]C(=O)CN(CC1)Cc1cccc(n1)C2 [Prior Art Mn Chelate, reference compound] | – | single phase | 0.032
